Patent publication US20260274861A1, “FUSED RING COMPOUND, PREPARATION METHOD THEREFOR AND MEDICINAL APPLICATION THEREOF” (JIANGSU HENGRUI PHARMACEUTICALS CO., LTD., priority 2022, published 2026)

Assays:
GP2d cells = test: Inhibition of 3D proliferation of GP2d cells (CellTiter-Glo 3D); assay type: cell-based; settings: 120 h, 5 days
Description: (§1) The inhibitory effects of the compounds of the present disclosure on the KRAS target were evaluated by assessing the inhibitory effects of the compounds of the present disclosure on the 3D proliferation of GP2d and AGS cells.
(§2) GP2d cells were cultured in a complete culture medium, namely a DMEM/high glucose culture medium (Hyclone, SH30243.01) containing 10% fetal bovine serum (Corning, 35-076-CV). On the first day of the experiment, the GP2d cells were seeded into a 96-well low-adsorption plate (Corning, CLS7007-24EA) with a complete culture medium at a density of 1000 cells/well, with each well containing 90 μL of a cell suspension. The plate was centrifuged at 2000 rpm for 5 min at room temperature and then incubated overnight in a 37° C., 5% CO2 cell incubator.
(§3) The next day, the test compounds, serially diluted in a complete culture medium, were added at 10 μL/well. The final concentrations of the compounds for GP2d cells were 9 concentration points obtained by 5-fold serial dilution from 1 μM, and the final concentrations of the compounds for AGS cells were 9 concentration points obtained by 5-fold serial dilution from […]. A blank control containing 0.5% DMSO was set for both types of cells. The plates were incubated in a 37° C., 5% CO2 cell incubator for 5 days. On the seventh day, the 96-well cell culture plates were taken out, and 50 μL of the CellTiter-Glo® 3D Cell Viability Assay reagent (Promega, G^9682) was added to each well. The plates were shaken at room temperature in the dark for 25 min. The contents in the wells were pipetted for good uniformity, and 100 μL of the mixture was transferred from each well to a white impermeable 96-well plate (PerkinElmer, 6005290). The luminescence signal values were obtained using a multi-mode microplate reader (PerkinElmer, EnVision2105).

AGS cells = test: Inhibition of 3D proliferation of AGS cells (CellTiter-Glo 3D); assay type: cell-based; settings: Homo sapiens, 120 h, 5 days
Description: as §1
as §2, with “AGS” for “GP2d”, “an RPM11640” for “a DMEM/high glucose culture”, “SH30809.01)” for “SH30243.01)”
as §3

[1] = system: ERK phosphorylation in AGS cells; test: Inhibition of ERK phosphorylation in AGS cells (HTRF method); assay type: cell-based; settings: Homo sapiens, 1 h incubation
Description: In the experiment, the inhibitory effects of the compounds of the present disclosure on the KRAS target were evaluated by assessing the inhibitory effects of the compounds on ERK phosphorylation in cells and based on IC50 values.
AGS cells were cultured in an RPMI1640 (Hyclone, SH30809.01) complete culture medium containing 10% fetal bovine serum. On the first day of the experiment, the AGS cells were seeded into a 96-well plate with a complete culture medium at a density of 40,000 cells/well, with each well containing 190 μL of a cell suspension. The plate was incubated overnight in a 37° C., 5% CO2 cell incubator.
The next day, the test compounds, serially diluted in a complete culture medium, were added at 10 μL/well. The final concentrations of the compounds were 9 concentration points obtained by 5-fold serial dilution from 10 μM. A blank control containing 0.5% DMSO was set. The plate was incubated in a 37° C., 5% CO2 cell incubator for 1 h. After the incubation, the 96-well cell culture plate was taken out, and the culture medium was removed using a pipette. The plate was washed once by adding 200 μL of PBS (Shanghai BasalMedia Technologies Co., Ltd., B320) to each well. The PBS was removed using a pipette, and 50 μL of a lysis buffer (Cisbio, 64KL1FDF) containing a blocking reagent (Cisbio, 64KB1AAC) was added to each well. The plate was shaken on a shaker at room temperature for 40 min for lysis. After lysis, the lysate was pipetted for good uniformity. […]
On the third day, the fluorescence values at an excitation wavelength of 337 nm and emission wavelengths of 665 nm and 620 nm were obtained using a multi-mode microplate reader (PerkinElmer, EnVision).
The ratio of the fluorescence signal at 665 nm to the fluorescence signal at 620 nm was calculated for phosphorylated ERK1/2 and total ERK1/2 for the compounds at various concentrations, and IC50 values for the inhibitory activity of the compounds were calculated using Graphpad Prism software based on the concentrations of the compounds and the phosphorylated ERK1/2 ratios corrected using the total ERK1/2 ratios.

AsPC-1 cells = test: Inhibition of 3D proliferation of AsPC-1 cells (CellTiter-Glo 3D); assay type: cell-based; settings: Homo sapiens, ASPC1, 120 h, 5 days
Description: On the first day of the experiment, well-grown AsPC-1 cells with 70%-80% confluency were digested and resuspended in an RPMI 1640 culture medium (Hyclone, SH30809.01) containing 10% FBS, and the cell density was adjusted to the desired level. The cell suspension was added to a U-shaped low-adsorption 96-well plate (Corning, CLS7007-24EA) at 90 μL/well, with a cell density of 1500 cells/well. The cell plate was centrifuged at 2500 rpm for 5 min and then incubated overnight in a 37° C., 5% CO2 incubator. The next day, 20 mM test compounds dissolved in DMSO were diluted to an initial concentration of 2 mM and then serially diluted 5-fold, and a total of 9 concentration points were obtained. Control wells were set using DMSO. The serially diluted compounds were then further diluted 20-fold with a culture medium. The test compounds, diluted with the culture medium, were added to the cell plate at 10 μL/well, with the final concentrations of the compounds being 9 concentration points obtained by 5-fold serial dilution from an initial concentration of 10 μM. Cell wells containing 0.5% DMSO were set as vehicle control wells, and wells containing only the culture medium and 0.5% DMSO were set as blank control wells. A duplicate well was set for each concentration of the compounds and the control wells, with the final concentration of DMSO in each well being 0.5%. The cell plate was centrifuged at 2500 rpm for 3 min and then incubated in a 37° C., 5% CO2 incubator for 5 days. On the seventh day, the 96-well cell culture plate was taken out, and 50 μL of the CellTiter-Glo® Luminescent 3D Cell Viability Assay reagent (Promega, G^9683) was added to each well. The plates were shaken at room temperature in the dark for 25 min. The contents in the wells were pipetted up and down for good uniformity, and then 100 μL of the mixture was transferred from each well to a white impermeable OptiPlate™-96-well plate (PerkinElmer, 6005290). The luminescence signal values were obtained using a multi-mode microplate reader (PerkinElmer, EnVision2105).
The inhibition rate was calculated using the formula: inhibition rate=(luminescence valuevehicle control well−luminescence valuetest compound)/(luminescence valuevehicle control well−luminescence valueblank control well)×100%. Curves were plotted using GraphPad Prism software based on the various concentrations of the compounds and the corresponding inhibition rates, and IC50 values for the compounds were calculated.

[2] = Pharmacokinetic evaluation in balb/c nude mice after intragastric administration; assay type: in vivo; settings: female, mouse, po, i.g., 40.0 mg/kg, plasma; for Vd/F: read-out: Apparent distribution volume Vz/F; for AUC(0-t): read-out: Area under curve AUC0-t; for CL/F: read-out: Clearance rate CL/F; for half-life: read-out: Half-life T½ (converted); for Cmax: read-out: Plasma concentration Cmax
Description: Balb/c nude mice were used as test animals. After intragastric (i.g.) administration of example compounds to balb/c nude mice, the plasma concentrations at different time points were determined by the LC/MS/MS method. The pharmacokinetic behavior of the compounds of the present disclosure in balb/c nude mice was studied, and their pharmacokinetic profiles were evaluated.
Eighteen female balb/c nude mice, provided by Vital River Laboratory Animal Technology Co., Ltd. with production license SCXK (Zhejiang) 2019-0001, were evenly divided into 2 groups.
A certain amount of a test compound was weighed out, and 5% DMF+45% PG+50% (10% HS15-pH 7.4 buffer)+400 mpk SNAC was added to prepare a 4 mg/mL colorless clear solution.
The dose administered was 40.0 mg/kg, and the volume was 10 mL/kg.
0.1-mL blood samples were collected from the orbit before administration and 0.25 h, 0.5 h, 1.0 h, 2.0 h, 4.0 h, 6.0 h, 8.0 h, 11.0 h, and 24.0 h after administration. The blood samples were placed into EDTA-K2 anticoagulation test tubes and centrifuged at 10,000 rpm for 1 min (4° C.), and plasma was separated within 1 h and stored at −20° C. before analysis. The procedure starting from the blood collection to the centrifugation was performed under ice-bath conditions.
After administration of different concentrations of the test compounds, the plasma concentration of the test compounds in balb/c nude mice was determined: A 25-μL sample of the balb/c nude mouse plasma of each time point after administration was taken, and 200 μL of acetonitrile containing an internal standard (for compound 37, the internal standard was 100 ng/mL verapamil; for compound 39, the internal standard was 100 ng/mL diclofenac) was added. The mixture was vortexed for 5 min and centrifuged at 3700 rpm for 20 min, and the supernatant was mixed with water (1:1). 0.5-2 μL of the supernatant was taken and analyzed by LC/MS/MS. 4. Pharmacokinetic parameters

SMILES: CCc1c(F)ccc2cc(O)cc(-c3nc4c5c(nc(OCC6(CN7CCOCC7)CC6)nc5c3F)N3C[C@H]5CC[C@H](N5)[C@H]3CO4)c12 [Example 1, 5-Ethyl-6-fluoro-4-((5aS,6S,9R)-1-fluoro-12-((1-(morpholinomethyl)cyclopropyl)methoxy)-5a,6,7,8,9,10-hexahydro-5H-4-oxa-3,10a,11,13,14-pentaaza-6,9-methanonaphtho[1,8-ab]heptalen-2-yl)naphthalen-2-ol]
- IC50 (GP2d cells): 5.2 nM
- IC50 (AGS cells): 16.7 nM
- IC50 [1]: 0.96 nM

SMILES: CCc1c(F)ccc2cc(O)cc(-c3nc4c5c(nc(OCC6(CN7C[C@@H]8C[C@H]7CO8)CC6)nc5c3F)N3C[C@H]5CC[C@H](N5)[C@H]3CO4)c12 [Example 2, 4-((5aS,6S,9R)-12-((1-(((15,4S)-2-Oxa-5-azabicyclo[2.2.1]heptan-5-yl)methyl)cyclopropyl)methoxy)-1-fluoro-5a,6,7,8,9,10-hexahydro-5H-4-oxa-3,10a,11,13,14-pentaaza-6,9-methanonaphtho[1,8-ab]heptalen-2-yl)-5-ethyl-6-fluoronaphthalen-2-ol]
- IC50 [1]: 1.5 nM

SMILES: CCc1c(F)ccc2cc(O)cc(-c3nc4c5c(nc(OCC6(CN7C[C@H]8C[C@@H]7CO8)CC6)nc5c3F)N3C[C@H]5CC[C@H](N5)[C@H]3CO4)c12 [Example 3, 4-((5aS,6S,9R)-12-((1-(((1R,4R)-2-Oxa-5-azabicyclo[2.2.1]heptan-5-yl)methyl)cyclopropyl)methoxy)-1-fluoro-5a,6,7,8,9,10-hexahydro-5H-4-oxa-3,10a,11,13,14-pentaaza-6,9-methanonaphtho[1,8-ab]heptalen-2-yl)-5-ethyl-6-fluoronaphthalen-2-ol]
- IC50 [1]: 1.2 nM

SMILES: C[C@@H]1Oc2nc(-c3ccc(F)c4sc(N)c(C#N)c34)c(F)c3nc(OCC4(CN5CCC(=CF)CC5)CC4)nc(c23)N2C[C@H]3CC[C@H](N3)[C@@H]12 [Example 37, 2-Amino-7-fluoro-4-((5S,5aS,6S,9R)-1-fluoro-12-((1-((4-(fluoromethylene)piperidin-1-yl)methyl)cyclopropyl)methoxy)-5-methyl-5a,6,7,8,9,10-hexahydro-5H-4-oxa-3,10a,11,13,14-pentaaza-6,9-methanonaphtho[1,8-ab]heptalen-2-yl)benzo[b]thiophene-3-carbonitrile]
- IC50 (GP2d cells): 0.4 nM
- IC50 (AGS cells): 4.7 nM
- IC50 (AsPC-1 cells): 2.4 nM
- Vd/F [2]: 78 L/kg
- AUC(0-t) [2]: 5260 ng·h/mL
- CL/F [2]: 113 mL/min/kg
- half-life [2]: 477 min
- Cmax [2]: 699 ng/mL

SMILES: C[C@@H]1Oc2nc(-c3cc(N)cc(Cl)c3C(F)(F)F)c(F)c3nc(OCC4(CN5CCC(=C(F)F)CC5)CC4)nc(c23)N2C[C@H]3CC[C@H](N3)[C@@H]12 [Example 39, 3-Chloro-5-((5S,5aS,6S,9R)-12-((1-((4-(difluoromethylene)piperidin-1-yl)methyl)cyclopropyl)methoxy)-1-fluoro-5-methyl-5a,6,7,8,9,10-hexahydro-5H-4-oxa-3,10a,11,13,14-pentaaza-6,9-methanonaphtho[1,8-ab]heptalen-2-yl)-4-(trifluoromethyl)aniline]
- IC50 (GP2d cells): 0.17 nM
- IC50 (AGS cells): 6.7 nM
- IC50 (AsPC-1 cells): 2.6 nM
- Vd/F [2]: 64.2 L/kg
- AUC(0-t) [2]: 7210 ng·h/mL
- CL/F [2]: 73.7 mL/min/kg
- half-life [2]: 604 min
- Cmax [2]: 578 ng/mL
